# Measured values from patent US9573956B2, “Compounds as dual inhibitors of phosphodiesterases and histone deacetylases” (FUNDACIÓN PARA LA INVESTIGACIÓN MÉDICA APLICADA, priority 2013, dated 2017).
# Like-named read-outs stand apart in the source and are kept apart here.
# Legend:
# Assay type in all cases: biochemical
# [1] = molecular target: HDAC1 (Homo sapiens, UniProt Q13547); experiment: HDAC enzyme activity assay (fluorogenic substrate), HDAC1
# [2] = molecular target: T1, HDAC6 (Homo sapiens, UniProt Q9UBN7); experiment: HDAC enzyme activity assay (fluorogenic substrate), HDAC6
# T1 construct: BC069243; Cat. #50006) is full-length with N-terminal GST tag; GST (N); purchased BPS Biosciences 50006; host or cells: baculovirus infected Sf9 cells
# T1 sequence (Q9UBN7 1-1215): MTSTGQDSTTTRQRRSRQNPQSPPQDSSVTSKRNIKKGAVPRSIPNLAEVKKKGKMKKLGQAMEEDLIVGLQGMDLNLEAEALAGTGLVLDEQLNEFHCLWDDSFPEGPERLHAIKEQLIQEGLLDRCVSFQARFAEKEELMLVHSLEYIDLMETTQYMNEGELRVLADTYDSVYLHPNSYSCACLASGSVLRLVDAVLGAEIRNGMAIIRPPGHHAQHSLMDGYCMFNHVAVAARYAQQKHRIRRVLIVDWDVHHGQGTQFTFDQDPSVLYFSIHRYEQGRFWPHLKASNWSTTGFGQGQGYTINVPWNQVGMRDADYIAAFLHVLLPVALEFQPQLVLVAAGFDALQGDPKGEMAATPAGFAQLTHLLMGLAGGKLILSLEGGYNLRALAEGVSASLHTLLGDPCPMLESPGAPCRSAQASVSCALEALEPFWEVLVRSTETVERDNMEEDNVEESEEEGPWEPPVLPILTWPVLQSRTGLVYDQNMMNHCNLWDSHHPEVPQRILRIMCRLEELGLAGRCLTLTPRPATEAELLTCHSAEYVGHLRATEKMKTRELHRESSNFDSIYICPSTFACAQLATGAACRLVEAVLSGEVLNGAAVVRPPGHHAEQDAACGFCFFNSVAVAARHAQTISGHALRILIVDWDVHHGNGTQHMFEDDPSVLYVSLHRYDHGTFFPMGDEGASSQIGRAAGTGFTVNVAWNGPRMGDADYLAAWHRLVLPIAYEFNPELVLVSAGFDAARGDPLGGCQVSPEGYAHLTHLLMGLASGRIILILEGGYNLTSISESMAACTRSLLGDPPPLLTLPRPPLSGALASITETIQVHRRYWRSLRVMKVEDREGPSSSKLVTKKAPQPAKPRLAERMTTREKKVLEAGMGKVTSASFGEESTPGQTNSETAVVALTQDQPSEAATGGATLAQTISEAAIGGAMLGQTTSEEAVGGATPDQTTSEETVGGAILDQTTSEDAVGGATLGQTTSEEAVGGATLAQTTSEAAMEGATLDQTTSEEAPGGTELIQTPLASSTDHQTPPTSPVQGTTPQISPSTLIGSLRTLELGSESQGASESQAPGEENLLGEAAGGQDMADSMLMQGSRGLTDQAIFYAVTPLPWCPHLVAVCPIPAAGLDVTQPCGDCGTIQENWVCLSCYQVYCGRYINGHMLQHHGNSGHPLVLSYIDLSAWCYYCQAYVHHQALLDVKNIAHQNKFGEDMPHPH
# [3] = molecular target: T2, HDAC2 (Homo sapiens, UniProt Q92769); experiment: HDAC enzyme activity assay (fluorogenic substrate), HDAC2
# T2 construct: NM_001527; Cat. #50002) is full-length with C-terminal his tag; His (C); purchased BPS Biosciences 50002; host or cells: baculovirus infected Sf9 cells
# [4] = molecular target: T3, PDE5A (Homo sapiens, UniProt O76074); experiment: PDE enzyme activity assay (HTRF cGMP), PDE5A
# T3 construct: they are full-length with N-terminal GST tag; GST (N); purchased BPS Biosciences 60050; host or cells: baculovirus infected Sf9 cells
# [5] = recombinant enzyme, read-out: HDAC1 inhibition (IC50)
# [6] = recombinant enzyme, read-out: HDAC6 inhibition (IC50)
# [7] = recombinant enzyme, read-out: HDAC2 inhibition (IC50)
# [8] = recombinant enzyme, read-out: PDE5A1 inhibition (IC50)
# [9] = comparative examples, inactive, read-out: HDAC1 IC50
# [10] = comparative examples, inactive, read-out: HDAC6 IC50
# [11] = comparative examples, inactive, read-out: HDAC2 IC50
# Chain of HDAC1 (Q13547 whole entry): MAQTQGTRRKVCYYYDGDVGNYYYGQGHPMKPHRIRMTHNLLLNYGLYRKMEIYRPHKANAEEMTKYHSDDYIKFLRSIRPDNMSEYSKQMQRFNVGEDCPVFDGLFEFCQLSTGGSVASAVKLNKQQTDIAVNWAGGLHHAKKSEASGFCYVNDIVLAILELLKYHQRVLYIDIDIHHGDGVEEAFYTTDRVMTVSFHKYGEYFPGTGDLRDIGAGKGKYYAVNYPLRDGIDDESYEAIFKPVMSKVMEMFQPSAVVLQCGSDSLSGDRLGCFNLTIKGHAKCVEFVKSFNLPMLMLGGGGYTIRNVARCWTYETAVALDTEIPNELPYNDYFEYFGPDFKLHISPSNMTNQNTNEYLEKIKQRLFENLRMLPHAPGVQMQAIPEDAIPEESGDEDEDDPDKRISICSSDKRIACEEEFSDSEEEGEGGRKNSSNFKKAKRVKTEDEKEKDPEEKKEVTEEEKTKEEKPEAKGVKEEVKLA
# T2 sequence (Q92769 whole entry): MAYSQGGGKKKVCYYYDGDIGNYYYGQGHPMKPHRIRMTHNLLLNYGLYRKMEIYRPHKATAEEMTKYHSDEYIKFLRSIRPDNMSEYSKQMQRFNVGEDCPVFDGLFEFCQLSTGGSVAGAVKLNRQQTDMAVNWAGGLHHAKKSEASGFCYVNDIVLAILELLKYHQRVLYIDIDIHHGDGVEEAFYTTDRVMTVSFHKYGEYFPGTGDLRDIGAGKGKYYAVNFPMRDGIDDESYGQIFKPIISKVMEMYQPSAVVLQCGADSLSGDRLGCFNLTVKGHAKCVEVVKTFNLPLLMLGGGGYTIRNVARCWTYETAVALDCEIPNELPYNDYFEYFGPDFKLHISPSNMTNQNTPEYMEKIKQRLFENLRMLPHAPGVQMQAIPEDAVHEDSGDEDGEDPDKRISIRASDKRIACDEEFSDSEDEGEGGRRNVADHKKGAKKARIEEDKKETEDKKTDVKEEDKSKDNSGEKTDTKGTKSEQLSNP
"IC50 [1, 5]","IC50 [2, 6]","IC50 [3, 7]","IC50 [4, 8]","IC50 [1, 9]","IC50 [2, 10]","IC50 [3, 11]","IC50 ([4]; comparative example, read-out: PDE5A1 IC50)",Compound
1 to 10 µM,0.01 to 1 µM,> 10 µM,0.01 to 1 µM,,,,,CCCc1nn(C)c2c(=O)[nH]c(-c3cc(CC4CCC(CC(=O)NO)CC4)ccc3OCC)nc12 (racemic) [Example 1-43]
,,,,> 20 µM,> 20 µM,> 20 µM,,"CCCc1nc(C)c2c(=O)[nH]c(-c3cc(S(=O)(=O)N(C)CC(=O)N(C)OC)ccc3OCC)nn12 [Comparative Example 2-01, 2-[[4-ethoxy-3-(5-methyl-4-oxo-7-propyl-3H-imidazo[5,1-f][1,2,4]triazin-2-yl)phenyl]sulfonyl-methyl-amino]-N-methoxy-N-methyl-acetamide, reference compound]"
,,,,> 20 µM,> 20 µM,> 20 µM,< 0.01 µM,"CCCc1nc(C)c2c(=O)[nH]c(-c3cc(CC4CC(C(=O)N(C)OC)C4)ccc3OCC)nn12 (stereo not shown) [Comparative Example 2-02, 3-[[4-ethoxy-3-(5-methyl-4-oxo-7-propyl-3H-imidazo[5,1-f][1,2,4]triazin-2-yl)phenyl]methyl]-N-methoxy-N-methylcyclobutanecarboxamide, reference compound]"
> 10 µM,,> 10 µM,0.01 to 1 µM,,,,,CCCc1nn(C)c2c(=O)[nH]c(-c3cc(S(=O)(=O)N4CCC(CCC(=O)NO)CC4)ccc3OCC)nc12 [Example 1-01]
0.01 to 1 µM,,1 to 10 µM,< 0.01 µM,,,,,CCCc1nn(C)c2c(=O)[nH]c(-c3cc(S(=O)(=O)N4CCN(Cc5ccc(/C=C/C(=O)NO)cc5)CC4)ccc3OCC)nc12 [Example 1-02]
1 to 10 µM,,> 10 µM,< 0.01 µM,,,,,"CCCc1nn(C)c2c(=O)[nH]c(-c3cc(S(=O)(=O)N4CCN(CCC(=O)NO)CC4)ccc3OCC)nc12 [Example 1-04, 3-(4-[3-(6,7-Dihydro-1-methyl-7-oxo-3-propyl-1H-pyrazolo[4,3-d]pyrimidin-5-yl)-4-ethoxyphenylsulfonyl]piperazin-1-yl)-N-hydroxypropanamide]"
1 to 10 µM,,1 to 10 µM,< 0.01 µM,,,,,CCCc1nn(C)c2c(=O)[nH]c(-c3cc(S(=O)(=O)N4CCN(CCCC(=O)NO)CC4)ccc3OCC)nc12 [Example 1-05]
0.01 to 1 µM,0.01 to 1 µM,> 10 µM,< 0.01 µM,,,,,"CCCc1nn(C)c2c(=O)[nH]c(-c3cc(Nc4ccc(C(=O)NO)cc4)ccc3OCC)nc12 [Example 1-21, 4-[4-ethoxy-3-(1-methyl-7-oxo-3-propyl-6H-pyrazolo[4,3-d]pyrimidin-5-yl)anilino]benzenecarbohydroxamic acid]"
0.01 to 1 µM,0.01 to 1 µM,0.01 to 1 µM,0.01 to 1 µM,,,,,CCCc1nn(C)c2c(=O)[nH]c(-c3cc(NCC4CCN(c5ncc(C(=O)NO)cn5)CC4)ccc3OCC)nc12 [Example 1-23]
1 to 10 µM,> 10 µM,> 10 µM,< 0.01 µM,,,,,"CCCc1nn(C)c2c(=O)[nH]c(-c3cc(C(=O)NO)ccc3OCC)nc12 [Example 1-27, 4-ethoxy-3-(1-methyl-7-oxo-3-propyl-6H-pyrazolo[4,3-d]pyrimidin-5-yl)benzenecarbohydroxamic acid]"
0.01 to 1 µM,0.01 to 1 µM,> 10 µM,0.01 to 1 µM,,,,,"CCCc1nn(C)c2c(=O)[nH]c(-c3cc(CC4CCC(C(=O)NO)CC4)ccc3OCC)nc12 (stereo not shown) [Example 1-28, 4-[[4-ethoxy-3-(1-methyl-7-oxo-3-propyl-6H-pyrazolo[4,3-d]pyrimidin-5-yl)phenyl]methyl]cyclohexanecarbohydroxamic acid]"
1 to 10 µM,1 to 10 µM,> 10 µM,0.01 to 1 µM,,,,,"CCCc1nn(C)c2c(=O)[nH]c(-c3cc(CCC(=O)NO)ccc3OCC)nc12 [Example 1-31, 3-[4-ethoxy-3-(1-methyl-7-oxo-3-propyl-6H-pyrazolo[4,3-d]pyrimidin-5-yl)phenyl]propanehydroxamic acid]"
,1 to 10 µM,> 10 µM,< 0.01 µM,,,,,CCCc1nn(C)c2c(=O)[nH]c(-c3cc(CC4CCN(CC(=O)NO)CC4)ccc3OCC)nc12 [Example 1-32]
1 to 10 µM,> 10 µM,> 10 µM,0.01 to 1 µM,,,,,"CCCc1nn(C)c2c(=O)[nH]c(-c3cc(NCCC(=O)NO)ccc3OCC)nc12 [Example 1-33, 3-[4-ethoxy-3-(1-methyl-7-oxo-3-propyl-6H-pyrazolo[4,3-d]pyrimidin-5-yl)anilino]propanehydroxamic acid]"
> 10 µM,0.01 to 1 µM,> 10 µM,0.01 to 1 µM,,,,,CCCc1nn(C)c2c(=O)[nH]c(-c3cc(-c4ccc(CC(=O)NO)cc4)ccc3OCC)nc12 [Example 1-34]
1 to 10 µM,1 to 10 µM,> 10 µM,0.01 to 1 µM,,,,,"CCCc1nn(C)c2c(=O)[nH]c(-c3cc(N4CCC(C(=O)NO)CC4)ccc3OCC)nc12 [Example 1-35, 1-[4-ethoxy-3-(1-methyl-7-oxo-3-propyl-6H-pyrazolo[4,3-d]pyrimidin-5-yl)phenyl]piperidine-4-carbohydroxamic acid]"
1 to 10 µM,1 to 10 µM,> 10 µM,0.01 to 1 µM,,,,,"CCCc1nn(C)c2c(=O)[nH]c(-c3cc(CN4CCC(C(=O)NO)CC4)ccc3OCC)nc12 [Example 1-36, 1-[[4-ethoxy-3-(1-methyl-7-oxo-3-propyl-6H-pyrazolo[4,3-d]pyrimidin-5-yl)phenyl]methyl]piperidine-4-carbohydroxamic acid]"
0.01 to 1 µM,0.01 to 1 µM,1 to 10 µM,0.01 to 1 µM,,,,,"CCCc1nn(C)c2c(=O)[nH]c(-c3cc(Oc4ccc(C(=O)NO)cc4)ccc3OCC)nc12 [Example 1-37, 4-[4-ethoxy-3-(1-methyl-7-oxo-3-propyl-6H-pyrazolo[4,3-d]pyrimidin-5-yl)phenoxy]benzenecarbohydroxamic acid]"
1 to 10 µM,0.01 to 1 µM,> 10 µM,0.01 to 1 µM,,,,,"CCCc1nn(C)c2c(=O)[nH]c(-c3cc(C4=CCC(C(=O)NO)CC4)ccc3OCC)nc12 (stereo not shown) [Example 1-38, 4-[4-ethoxy-3-(1-methyl-7-oxo-3-propyl-6H-pyrazolo[4,3-d]pyrimidin-5-yl)phenyl]cyclohex-3-ene-1-carbohydroxamic acid]"
1 to 10 µM,0.01 to 1 µM,1 to 10 µM,0.01 to 1 µM,,,,,CCCc1nn(C)c2c(=O)[nH]c(-c3cc(CC4CCN(c5ccc(C(=O)NO)cn5)CC4)ccc3OCC)nc12 [Example 1-39]
> 10 µM,1 to 10 µM,> 10 µM,0.01 to 1 µM,,,,,"CCCc1nn(C)c2c(=O)[nH]c(-c3cc(C4CCC(C(=O)NO)CC4)ccc3OCC)nc12 (stereo not shown) [Example 1-41, 4-[4-ethoxy-3-(1-methyl-7-oxo-3-propyl-6H-pyrazolo[4,3-d]pyrimidin-5-yl)phenyl]cyclohexanecarbohydroxamic acid]"
1 to 10 µM,0.01 to 1 µM,> 10 µM,0.01 to 1 µM,,,,,CCCc1nn(C)c2c(=O)[nH]c(-c3cc(C4=CCC(CC(=O)NO)CC4)ccc3OCC)nc12 (stereo not shown) [Example 1-42]

Compound,"IC50 [1, 5]","IC50 [2, 6]","IC50 [3, 7]","IC50 [4, 8]","IC50 [1, 9]","IC50 [2, 10]","IC50 [3, 11]","IC50 ([4]; comparative example, read-out: PDE5A1 IC50)"
"(1R,2R)-2-(1-(4,4-difluorocyclohexyl)-3a,4,5,7a-tetrahydro-4-oxo-1H-pyrazolo[3,4-d]pyrimidin-6-yl)-N-methoxy-N-methylcyclobutanecarboxamide [Comparative Example 3-01, reference compound]",,,,,> 20 µM,> 20 µM,> 20 µM,
